Inconclusive results and toxic doses are left out. No stated cut-off is given here; in the data, active means T/C of 150% or more; inactive means T/C below 125%.
System: L1210 leukemia ip in BDF1 mice, survival T/C
Test: NCI In Vivo Anticancer Drug Screen. Data for tumor model L1210 Leukemia (intraperitoneal) in B6D2F1 (BDF1) mice
Conditions: endpoint: mean survival time, higher = longer survival
Outline: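 Survival endpoint. Drug-treated group vs vehicle group, expressed as T divided by C. Tumor passaged by transplantation.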

[1] = dose: 50.0 mg/kg/injection, schedule: Q01DX009 (ip), vehicle: Klucel (hydroxypropylcellulose) (HPC)
[2] = dose: 100.0 mg/kg/injection, schedule: Q01DX009 (ip), vehicle: Klucel (hydroxypropylcellulose) (HPC)
[3] = dose: 200.0 mg/kg/injection, schedule: Q01DX009 (ip), vehicle: Klucel (hydroxypropylcellulose) (HPC)
[4] = dose: 75.0 mg/kg/injection, schedule: Q01DX009 (ip), vehicle: Klucel (hydroxypropylcellulose) (HPC)
[5] = dose: 100.0 mg/kg/injection, schedule: Q01DX001 (ip), vehicle: carboxymethylcellulose (CMC)
[6] = dose: 200.0 mg/kg/injection, schedule: Q01DX001 (ip), vehicle: carboxymethylcellulose (CMC)
[7] = dose: 400.0 mg/kg/injection, schedule: Q01DX001 (ip), vehicle: carboxymethylcellulose (CMC)
[8] = dose: 100.0 mg/kg/injection, schedule: Q04DX003 (ip), vehicle: Klucel (hydroxypropylcellulose) (HPC)
[9] = dose: 200.0 mg/kg/injection, schedule: Q04DX003 (ip), vehicle: Klucel (hydroxypropylcellulose) (HPC)
[10] = dose: 400.0 mg/kg/injection, schedule: Q04DX003 (ip), vehicle: Klucel (hydroxypropylcellulose) (HPC)
[11] = dose: 100.0 mg/kg/injection, schedule: Q01DX001 (ip), vehicle: saline
[12] = dose: 200.0 mg/kg/injection, schedule: Q01DX001 (ip), vehicle: saline
[13] = dose: 400.0 mg/kg/injection, schedule: Q01DX001 (ip), vehicle: saline

Measured: T/C

CCN(CC)c1ccc(/C=N\N(C)C)cc1
inactive: [1] 97 % of control | [2] 101 % of control | [3] 106 % of control

CC(=O)OCC(=O)[C@@]1(O)CC[C@H]2[C@@H]3CCC4=CC(=O)C=C[C@]4(C)[C@H]3C(=O)C[C@@]21C
inactive: dose: 12.5 mg/kg/injection, schedule: Q01DX009 (ip), vehicle: Klucel (hydroxypropylcellulose) (HPC) 93 % of control | dose: 25.0 mg/kg/injection, schedule: Q01DX009 (ip), vehicle: Klucel (hydroxypropylcellulose) (HPC) 98 % of control | [1] 103 % of control | [4] 100 % of control | dose: 115.0 mg/kg/injection, schedule: Q01DX009 (ip), vehicle: Klucel (hydroxypropylcellulose) (HPC) 98 % of control | dose: 170.0 mg/kg/injection, schedule: Q01DX009 (ip), vehicle: Klucel (hydroxypropylcellulose) (HPC) 103 % of control | dose: 255.0 mg/kg/injection, schedule: Q01DX009 (ip), vehicle: Klucel (hydroxypropylcellulose) (HPC) 86 % of control

OC1C2CC3C1C3C2c1ccccc1 (stereo not given)
inactive: [2] 102 % of control | [3] 91 % of control

O=C(CCN1CC2CCC(CC2)C1)c1csc2ccccc12
inactive: dose: 88.8 mg/kg/injection, schedule: Q01DX001 (ip), vehicle: carboxymethylcellulose (CMC) 93 % of control | [5] 91 % of control | dose: 133.4 mg/kg/injection, schedule: Q01DX001 (ip), vehicle: carboxymethylcellulose (CMC) 98 % of control | [6] 97 % of control | dose: 300.0 mg/kg/injection, schedule: Q01DX001 (ip), vehicle: carboxymethylcellulose (CMC) 95 % of control | [7] 107 % of control

CCCCC(=O)N/N=C/c1c[nH]c2ccc(Br)cc12
inactive: [5] 88 % of control | [6] 93 % of control | [7] 93 % of control

CC(=O)NC(C)C(C)(C)O (stereo not given)
inactive: dose: 100.0 mg/kg/injection, schedule: Q01DX009 (ip), vehicle: saline 101 % of control | dose: 200.0 mg/kg/injection, schedule: Q01DX009 (ip), vehicle: saline 98 % of control | dose: 400.0 mg/kg/injection, schedule: Q01DX009 (ip), vehicle: saline 103 % of control

Cc1nc(-c2ccccc2)[nH]c(=O)c1CC(O)c1ccccc1 (stereo not given)
inactive: [8] 86 % of control | [9] 92 % of control | [10] 87 % of control

CCCCc1nc2c(O)ccc(O)c2nc1C
inactive: dose: 75.0 mg/kg/injection, schedule: Q01DX001 (ip), vehicle: other 93 % of control | dose: 75.0 mg/kg/injection, schedule: Q04DX003 (ip), vehicle: other 101 % of control | dose: 150.0 mg/kg/injection, schedule: Q01DX001 (ip), vehicle: other 88 % of control | dose: 150.0 mg/kg/injection, schedule: Q04DX003 (ip), vehicle: other 104 % of control | dose: 300.0 mg/kg/injection, schedule: Q01DX001 (ip), vehicle: other 87 % of control

CC(=O)OCC1OC(OC(C)=O)C(NS(=O)(=O)c2ccc(C)cc2)C(OC(C)=O)C1OC(C)=O (stereo not given)
inactive: [11] 102 % of control | [12] 104 % of control | [13] 102 % of control

c1ccc(Cn2nnc(-c3ccccc3)n2)cc1
inactive: dose: 100.0 mg/kg/injection, schedule: Q04DX003 (ip), vehicle: saline 97 % of control | dose: 200.0 mg/kg/injection, schedule: Q04DX003 (ip), vehicle: saline 94 % of control | dose: 400.0 mg/kg/injection, schedule: Q04DX003 (ip), vehicle: saline 89 % of control

NC1C(O)C(O)C(Nc2ncnc3nc[nH]c23)OC1C(O)CO (stereo not given)
inactive: dose: 0.44 mg/kg/injection, schedule: Q## X000 (ip), vehicle: carboxymethylcellulose (CMC) 98 % of control | dose: 0.66 mg/kg/injection, schedule: Q## X000 (ip), vehicle: carboxymethylcellulose (CMC) 100 % of control | dose: 1.0 mg/kg/injection, schedule: Q## X000 (ip), vehicle: carboxymethylcellulose (CMC) 100 % of control | dose: 1.5 mg/kg/injection, schedule: Q01DX009 (ip), vehicle: saline 104 % of control | dose: 1.5 mg/kg/injection, schedule: Q## X000 (ip), vehicle: carboxymethylcellulose (CMC) 100 % of control | dose: 3.0 mg/kg/injection, schedule: Q01DX001 (ip), vehicle: saline 107 % of control | dose: 3.0 mg/kg/injection, schedule: Q01DX009 (ip), vehicle: saline 103 % of control | dose: 6.0 mg/kg/injection, schedule: Q01DX001 (ip), vehicle: saline 107 % of control | dose: 6.0 mg/kg/injection, schedule: Q01DX009 (ip), vehicle: saline 101 % of control | dose: 12.0 mg/kg/injection, schedule: Q01DX001 (ip), vehicle: saline 107 % of control | dose: 12.0 mg/kg/injection, schedule: Q01DX009 (ip), vehicle: saline 98 % of control | dose: 24.0 mg/kg/injection, schedule: Q01DX001 (ip), vehicle: saline 104 % of control | dose: 24.0 mg/kg/injection, schedule: Q01DX009 (ip), vehicle: saline 101 % of control | dose: 35.0 mg/kg/injection, schedule: Q01DX009 (ip), vehicle: saline 95 % of control | dose: 48.0 mg/kg/injection, schedule: Q01DX001 (ip), vehicle: saline 103 % of control | dose: 55.0 mg/kg/injection, schedule: Q01DX009 (ip), vehicle: saline 97 % of control | dose: 75.0 mg/kg/injection, schedule: Q01DX001 (ip), vehicle: saline 96 % of control | dose: 80.0 mg/kg/injection, schedule: Q01DX009 (ip), vehicle: saline 97 % of control | dose: 110.0 mg/kg/injection, schedule: Q01DX001 (ip), vehicle: saline 98 % of control | dose: 165.0 mg/kg/injection, schedule: Q01DX001 (ip), vehicle: saline 101 % of control | dose: 245.0 mg/kg/injection, schedule: Q01DX001 (ip), vehicle: saline 95 % of control | dose: 370.0 mg/kg/injection, schedule: Q01DX001 (ip), vehicle: saline 103 % of control

CCCCNC(C)(C)C(SSSC(C)=O)c1ccco1 (stereo not given)
inactive: dose: 12.5 mg/kg/injection, schedule: Q01DX009 (ip), vehicle: saline with Tween-80 100 % of control | dose: 12.5 mg/kg/injection, schedule: Q04DX003 (ip), vehicle: saline with Tween-80 102 % of control | dose: 25.0 mg/kg/injection, schedule: Q01DX009 (ip), vehicle: saline with Tween-80 104 % of control | dose: 25.0 mg/kg/injection, schedule: Q04DX003 (ip), vehicle: saline with Tween-80 106 % of control | dose: 50.0 mg/kg/injection, schedule: Q01DX009 (ip), vehicle: saline with Tween-80 108 % of control | dose: 50.0 mg/kg/injection, schedule: Q04DX003 (ip), vehicle: saline with Tween-80 96 % of control | dose: 100.0 mg/kg/injection, schedule: Q04DX003 (ip), vehicle: saline with Tween-80 102 % of control

O=C(CC(=O)C(F)(F)F)c1cccs1.O=C(CC(=O)C(F)(F)F)c1cccs1.O=C(CC(=O)C(F)(F)F)c1cccs1.[Cr]
inactive: dose: 100.0 mg/kg/injection, schedule: Q01DX001 (ip), vehicle: other 91 % of control | dose: 100.0 mg/kg/injection, schedule: Q04DX003 (ip), vehicle: other 97 % of control | dose: 200.0 mg/kg/injection, schedule: Q01DX001 (ip), vehicle: other 94 % of control | dose: 200.0 mg/kg/injection, schedule: Q04DX003 (ip), vehicle: other 103 % of control | dose: 400.0 mg/kg/injection, schedule: Q01DX001 (ip), vehicle: other 96 % of control | dose: 400.0 mg/kg/injection, schedule: Q04DX003 (ip), vehicle: other 94 % of control

c1ccc(CNCCOB(OCCNCc2ccccc2)OCCNCc2ccccc2)cc1
inactive: [2] 94 % of control | [8] 98 % of control | [3] 94 % of control | [9] 111 % of control | dose: 400.0 mg/kg/injection, schedule: Q01DX009 (ip), vehicle: Klucel (hydroxypropylcellulose) (HPC) 97 % of control | [10] 95 % of control

OC(c1ccccc1)(c1ccccc1)c1nc2ccccc2[nH]1
inactive: [4] 97 % of control | dose: 150.0 mg/kg/injection, schedule: Q01DX009 (ip), vehicle: Klucel (hydroxypropylcellulose) (HPC) 87 % of control | dose: 300.0 mg/kg/injection, schedule: Q01DX009 (ip), vehicle: Klucel (hydroxypropylcellulose) (HPC) 104 % of control

C=CC(N)=O (tested in a mixture with another compound)
inactive: [11] 99 % of control | [12] 99 % of control | [13] 89 % of control
